Test results published in paper PMC8919384 (ACS Medicinal Chemistry Letters, 2022).
≈ marks a conversion by molar mass, not a printed value.

Tests used:
Solubility = format: physicochemical; conditions: pH 1.2, simulated gastric fluid
A1 AR = target: T1, A1 AR (Homo sapiens, UniProt P30542); conditions: binding Ki
T1 sequence (P30542 1-326): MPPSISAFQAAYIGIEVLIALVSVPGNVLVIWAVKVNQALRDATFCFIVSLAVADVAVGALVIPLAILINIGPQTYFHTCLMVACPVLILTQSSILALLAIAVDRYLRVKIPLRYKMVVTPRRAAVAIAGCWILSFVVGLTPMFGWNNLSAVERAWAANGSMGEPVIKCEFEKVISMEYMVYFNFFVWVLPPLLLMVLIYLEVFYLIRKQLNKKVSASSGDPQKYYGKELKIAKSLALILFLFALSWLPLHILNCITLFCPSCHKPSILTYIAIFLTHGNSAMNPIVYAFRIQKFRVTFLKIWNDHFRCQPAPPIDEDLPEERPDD

[1] = test system: adult rat model of focal cerebral ischemia; conditions: cited from earlier work
lung metastasis model = conditions: cited from earlier work
melanoma-bearing mice = conditions: combined with anti-CTLA-4 mAb; cited from earlier work

## Cn1cc(-c2cnc(N)n3nc(-c4ccco4)nc23)ccc1=O [1a]
Solubility
  solubility: 1990 µg/mL (≈ 6.45 mM)

## Cc1cnc(-c2nc3c(-c4ccc(=O)n(C)c4)cnc(N)n3n2)s1 [1d]
A1 AR
  selectivity for A1 AR over the A2A AR: two-fold

## Nc1nc2c(cnn2CCc2ccccc2)c2nc(-c3ccco3)nn12 [SCH58261]
[1]
  ischemic brain damage: reduced ischemic brain damage

## Nc1nc(NCCc2ccc(O)cc2)nc2nc(-c3ccco3)nn12 [ZM241385]
Lung metastasis model
  tumor growth in a lung metastasis model: significantly inhibited tumor growth
melanoma-bearing mice
  tumor growth in melanoma-bearing mice: remarkable delay in tumor growth
